One data set has as its target T1, CYP2C11 (Rattus norvegicus, UniProt P08683).
T1 construct: and 1 mg/ml rat liver microsomes; from tissue; host or cells: rat liver microsomes
T1 sequence (P08683 1-500): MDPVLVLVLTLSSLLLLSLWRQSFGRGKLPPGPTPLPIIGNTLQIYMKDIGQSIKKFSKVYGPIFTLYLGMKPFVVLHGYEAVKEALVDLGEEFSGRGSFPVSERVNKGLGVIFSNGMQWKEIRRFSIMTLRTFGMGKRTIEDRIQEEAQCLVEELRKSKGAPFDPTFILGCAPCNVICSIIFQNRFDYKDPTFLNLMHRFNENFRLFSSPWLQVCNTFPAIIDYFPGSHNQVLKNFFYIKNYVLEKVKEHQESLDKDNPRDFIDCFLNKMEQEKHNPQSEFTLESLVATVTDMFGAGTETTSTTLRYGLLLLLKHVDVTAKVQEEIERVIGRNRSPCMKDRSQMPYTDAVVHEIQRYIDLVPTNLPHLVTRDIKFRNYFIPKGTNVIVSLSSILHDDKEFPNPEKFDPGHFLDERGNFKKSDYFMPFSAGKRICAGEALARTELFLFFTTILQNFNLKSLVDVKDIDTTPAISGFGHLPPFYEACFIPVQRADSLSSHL
More on the design: method as in Otten et al., 2011. Particulars: CYP enzyme 2C11; cocktail probe substrate parameter, source not stated; ref Otten et al., 2011; cited from earlier work.

For another data set, the target named is T2, CYP2D1 (Rattus norvegicus, UniProt P10633).
T2 construct: and 1 mg/ml rat liver microsomes; from tissue; host or cells: rat liver microsomes
T2 sequence (P10633 1-504): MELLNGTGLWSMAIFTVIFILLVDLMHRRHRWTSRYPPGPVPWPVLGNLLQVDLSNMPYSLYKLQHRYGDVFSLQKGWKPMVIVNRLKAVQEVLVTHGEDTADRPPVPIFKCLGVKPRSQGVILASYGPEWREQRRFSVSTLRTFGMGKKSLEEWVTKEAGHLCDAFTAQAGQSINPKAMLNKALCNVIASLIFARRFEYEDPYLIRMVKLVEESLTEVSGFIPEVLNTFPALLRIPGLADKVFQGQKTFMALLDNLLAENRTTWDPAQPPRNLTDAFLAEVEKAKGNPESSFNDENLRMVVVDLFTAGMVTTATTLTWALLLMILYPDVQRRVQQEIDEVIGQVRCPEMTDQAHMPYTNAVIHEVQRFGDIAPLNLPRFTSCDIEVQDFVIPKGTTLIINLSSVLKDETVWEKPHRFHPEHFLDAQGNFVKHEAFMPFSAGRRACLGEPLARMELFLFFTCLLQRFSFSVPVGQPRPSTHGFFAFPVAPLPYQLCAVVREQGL
Also on record: method as in Otten et al., 2011. Particulars: CYP enzyme 2D1; cocktail probe substrate parameter, source not stated; ref Otten et al., 2011; cited from earlier work.

The next data set deals with T3, CYP2B2 (Rattus norvegicus, UniProt P04167).
T3 construct: and 1 mg/ml rat liver microsomes; from tissue; host or cells: rat liver microsomes
T3 sequence (P04167 1-491): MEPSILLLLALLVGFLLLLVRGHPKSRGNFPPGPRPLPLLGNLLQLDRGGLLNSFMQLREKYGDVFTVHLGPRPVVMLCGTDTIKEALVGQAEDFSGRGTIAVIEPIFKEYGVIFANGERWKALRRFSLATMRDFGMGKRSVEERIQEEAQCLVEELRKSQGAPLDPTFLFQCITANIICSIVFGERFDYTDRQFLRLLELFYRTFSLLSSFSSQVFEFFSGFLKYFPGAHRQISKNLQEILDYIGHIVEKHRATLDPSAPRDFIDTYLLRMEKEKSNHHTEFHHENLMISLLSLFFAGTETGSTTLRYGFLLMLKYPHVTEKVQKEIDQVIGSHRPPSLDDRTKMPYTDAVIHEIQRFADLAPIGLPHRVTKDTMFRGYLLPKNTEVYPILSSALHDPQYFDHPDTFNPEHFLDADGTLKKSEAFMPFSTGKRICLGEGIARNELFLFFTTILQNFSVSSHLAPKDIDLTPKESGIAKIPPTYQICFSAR
More on the design: method as in Otten et al., 2011. The settings on record: CYP enzyme 2B2; cocktail probe substrate parameter, source not stated; ref Otten et al., 2011; cited from earlier work.

The subject of data set [1] is bacterial ß-D-glucuronidase. Also on record: method as in Takeda et al., 1996. Particulars: gastrointestinal tract, after oral administration; ref Takeda et al., 1996; cited from earlier work.
The subject of a further data set is CYP1A2. The settings on record: CYP enzyme 1A2; cocktail probe substrate parameter, source not stated; ref Otten et al., 2011; cited from earlier work.
The next data set concerns rat liver microsomes. Put plainly: Formation of 7,9-diGS-DHP from RTS in rat liver microsomes. In kind it is biochemical. The settings on record: KCZ 25 µM; 1 mg/ml rat liver microsomes, 200 µM RTS. On the procedure: The injection volume was 3 μL. […] The injection volume was 5 µL.
The target in a further data set is T4, CYP2A2 (Rattus norvegicus, UniProt P15149).
T4 construct: and 1 mg/ml rat liver microsomes; from tissue; host or cells: rat liver microsomes
T4 sequence (P15149 whole entry): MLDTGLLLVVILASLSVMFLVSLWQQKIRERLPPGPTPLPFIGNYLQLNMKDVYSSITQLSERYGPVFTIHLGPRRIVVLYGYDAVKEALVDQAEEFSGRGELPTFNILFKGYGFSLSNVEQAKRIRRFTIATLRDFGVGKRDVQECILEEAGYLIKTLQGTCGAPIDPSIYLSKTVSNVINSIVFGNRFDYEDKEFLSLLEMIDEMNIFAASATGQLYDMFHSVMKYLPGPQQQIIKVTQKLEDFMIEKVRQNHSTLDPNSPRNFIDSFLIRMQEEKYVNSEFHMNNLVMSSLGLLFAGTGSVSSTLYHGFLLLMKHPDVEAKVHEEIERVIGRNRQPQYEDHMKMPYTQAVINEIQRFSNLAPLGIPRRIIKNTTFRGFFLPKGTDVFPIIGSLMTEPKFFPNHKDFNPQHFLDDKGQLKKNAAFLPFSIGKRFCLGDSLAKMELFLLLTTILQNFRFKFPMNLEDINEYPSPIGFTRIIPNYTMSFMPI
More on the design: method as in Otten et al., 2011. Particulars: CYP enzyme 2A2; cocktail probe substrate parameter, source not stated; ref Otten et al., 2011; cited from earlier work.

As for `CC[C@@]1(c2ccccc2)NC(=O)N(C)C1=O` [S-Mephenytoin], the Km on CYP2C11 was 13 to 35 µM.

`COc1ccc2c(c1)[C@]13CCCC[C@@H]1[C@H](C2)N(C)CC3` [Dextromethorphan]: the Km at CYP2D1 is 0.4 to 8.5 µM.

For `CC(NC(C)(C)C)C(=O)c1cccc(Cl)c1` (stereo not shown) [Bupropion], on CYP2B2, the Km is 67 to 168 µM.

As for `CC1(C)[C@@H](O[C@H]2O[C@H](C(=O)O)[C@@H](O)[C@H](O)[C@H]2O[C@@H]2O[C@H](C(=O)O)[C@@H](O)[C@H](O)[C@H]2O)CC[C@]2(C)[C@H]3C(=O)C=C4[C@@H]5C[C@@](C)(C(=O)O)CC[C@]5(C)CC[C@@]4(C)[C@]3(C)CC[C@@H]12` [GL, Glycyrrhizin], the “fraction of GL irreversibly transformed into 18β-GA” value in data set [1] was about 100%.

Take `CCOc1ccc(NC(C)=O)cc1` [Phenacetin]: in the data set with CYP1A2, the Km is 1.7 to 152 µM.

`CC(=O)N1CCN(c2ccc(OCC3COC(Cn4ccnc4)(c4ccc(Cl)cc4Cl)O3)cc2)CC1` (stereo not shown) [KCZ, ketoconazole]: the “reduction of the formation of 7,9-diGS-DHP” value in the data set on rat liver microsomes worked out at 62%.

As to `O=c1ccc2ccccc2o1` [Coumarin], on CYP2A2, the Km was 0.3 to 2.3 µM.

The values above are taken from article PMC8966664 (Frontiers in Pharmacology, 2022).
